Results from US6410037B1, “Anti-pruritic compositions” (Roche Consumer Health AG, priority 1999, dated 2002).

How the values were obtained:
[1] = tested on: peritoneal mastocytes of rat; test: Histamine release by peritoneal mastocytes of rat stimulated by substance P (spectrofluorimetry with OPT); assay type: cell-based; conditions: 10 μg/ml Ca-panthothenate and 7.5 μg/ml glycine, taken separately or together; substance P 10 μM
Protocol: Peritoneal mastocytes of rat were incubated with the test products and the substance P for 2 minutes at 37° C. in the following medium: sodium phosphate buffer 4 mM; potassium phosphate buffer 2.7 mM; NaCl 0.145 M; KCl 2.7 mM; CaCl2 0.9 mM; BSA (bovine serum albumin 0.175% (w/v). At the end of the incubation, histamine released by the mastocytes was quantified by spectrofluorimetry with ortho-phthalaldehyde (OPT) (R. Hakanson, A. I. Ronnberg and K. Sjolund, Analy. Biochem., 47,1972, pp. 356-370). The measurements were carried out by means of a multiplate spectrofluorimeter (Cytofluor 2350, MILLIPORE). Data groups (control and treated groups) were compared using a one-way analysis of variance (ANOVA 1, p<0.05), following by a Dunnett' test (p<0.05).

human skin tissue = test: Histamine release by human skin discs stimulated by substance P (ELISA); assay type: cell-based
Protocol: Test were carried out on peritoneal mastocytes of rat stimulated by the substance P (10 μM), or on human skin tissue.
The skin tissue assay system was prepared from normal adult skin collected after abdominal plastic surgery. The subject was a person (subject M1085). The skin tissue specimen was rinsed in Krebs bicarbonate solution consisting of: NaCl 118 mM; KCl 5.4 mM; NaH2PO4 1 mM; MgSO4 1.2 mM, CaCl2 1.9 mM; NaHCO3 25 mM and D-glucose 11.1 mM. Skin discs of about 8 mm of diameter were performed. Skin discs were cultured in RPMI 1640 medium supplemented with penicillin (100 UI/ml), streptomycin (110 μg/ml) and 2 mM glutamine. Skin discs were maintained at 37° C. in a humidified incubator under a 5% Co2/95% air atmosphere. Test products were incubated with the human skin discs and 100 μM of substance P for 2 hours at 37° C.
At the end of the incubation, histamine released by the human skin discs was quantified by ELISA (IMMUNOTECH). The results were expressed as pmoles of histamine released per gram of skin. Data groups (control and treated groups) were compared using a one-way analysis of variance (ANOVA 1, p<0.05), following by a Dunnett's test (p<0.05).

mastocytes = conditions: cited from earlier work

Compound	Inhibition of histamine release (in words) [1]	Effect of addition of glycine to Ca-pantothenate on inhibition of histamine release (in words) (human skin tissue; glycine 75 μg/ml added to Ca-pantothenate 100 μg/ml)	Histamine release by mastocytes (in words) (mastocytes)	Inhibition of histamine release (in words) (human skin tissue; already at a concentration of 25 μg/ml)
NCC(=O)O [Glycine]	do not act as inhibitors	further improves such inhibition	inhibits histamine release by mastocytes	–
calcium pantothenate [Ca-pantothenate]	do not act as inhibitors	–	–	acts as inhibitor of the histamine release
